The source of these data is publication PMC4776139, “Extended string-like binding of the phosphorylated HP1α N-terminal tail to the lysine 9-methylated histone H3 tail” (Scientific Reports, 2016).

Data set [1] has as its system H3K9me peptide (22-mer, amino acids 1–21 of histone H3 with a C-terminal tyrosine). The data set can be described thus: Isothermal titration calorimetry (ITC) of HP1α chromodomain constructs with H3K9me peptide. Format: binding. The following applies: for ΔS (entropy change) / Ka / ΔH (enthalpy change) / Kd: 20 °C; for ΔS (entropy change): calculated from Kd and ΔH; for Ka / ΔH (enthalpy change): pH 6.80, one-site binding model; for Kd: 20 mM KPB (pH 6.80), 10 mM NaCl; for fold stronger binding to H3K9me than the CD alone: relative to CD (NCD^Δ1–19); for fold weaker binding to H3K9me as compared with NCD^Δ1–9: relative to NCD^Δ1–9; for times more strongly bound H3K9me than the CD: relative to CD. The procedure: Protein solution (40 μM) was loaded into a VP-ITC isothermal titration calorimeter (Microcal, INC.) cell (active cell volume 1.4 ml). The solution was titrated against 400 μM ligand solution via a 250 μl titration syringe. Experiments were carried out at 20 °C. The ligand solution was prepared in the same buffer as the protein (20 mM KPB (pH 6.80), 10 mM NaCl). The heat of dilution generated by the ligand was subtracted, and the binding isotherms were fitted to a one-site binding model by using Origin 7 Software (Microcal, INC.). From the values of Kd and ΔH, the thermodynamic parameters, ΔG and ΔS were calculated according to the basic thermodynamic equations;

Data set [2] in a line: Small angle X-ray scattering (SAXS). As to Dmax (maximum particle dimension): values in Å. As to Rg (radius of gyration): values in Å. Format: physicochemical. The following applies: for association state, in words: SAXS at 5, 10 and 15 mg/ml, no scattering from aggregated protein; for association state, in words / Dmax (maximum particle dimension): pH 6.8, 20 °C; for Rg (radius of gyration) / Estimated molecular weight (association state) / Dmax (maximum particle dimension): SAXS; for Rg (radius of gyration): Guinier plot; for Estimated molecular weight (association state): from I(0)/c compared to hen egg white lysozyme; for Dmax (maximum particle dimension): from P(r) function (GNOM). The protocol:
To confirm the structural differences between unmod-NCD and phos-NCD, small angle X-ray scattering (SAXS) experiments were carried out on CD, unmod-NCD, and phos-NCD. To check inter-particle interference, SAXS data were collect at three different protein concentrations, 5, 10 and 15 mg/ml (Supplementary Fig. S4). The radius of gyration Rg, and the estimated molecular weight from the forward scattering intensity I(0), of CD, unmod-NCD, and phos-NCD are summarized in Fig. 3. […] The Rg value of the CD at the three different protein concentrations was estimated as 14.0 ± 0.3, 13.8 ± 0.3 and 13.7 ± 0.2 Å, which are close to the Rg value calculated from the NMR structure of the CD (15.0 Å).
We converted the scattering profiles at 5 mg/ml to the P(r) function and the estimated maximum particle dimension, Dmax (Fig. 3). […] The Dmax of unmod-NCD (79 Å) and phos-NCD (94 Å) was larger than that of the CD (56 Å). The extended tail of the P(r) function and larger Dmax for unmod-NCD and phos-NCD is due to scattering from the N-terminal tail region in each case.
SAXS measurements were performed at 20 °C with a MicroMax007HF X-ray generator (Rigaku). A PILATUS100K detector (DECTRIS) at a distance of 561 mm from the sample was used to measure scattering intensities. Each sample solution was transferred to a quartz-window cell with a 1 mm path length. Circular averaging of the scattering intensities was carried out to obtain one-dimensional scattering data I(q) as a function of q (q = 4πsinθ/λ, where 2θ is the scattering angle and λ is the X-ray wavelength 1.5418 Å). To correct for interparticle interference, I(q) data were collected at three different protein concentrations (5, 10, and 15 mg/ml in 50 mM KPB (pH 6.8), 500 mM NaCl, and 5 mM DTT.). The total exposure times were 6 hours for 5 mg/ml, and 3 hours for both 10mg/ml and 15mg/ml. […] To estimate the molecular weight of samples, I(q) data were collected for hen egg white lysozyme (5.2 mg/ml in 50 mM KPB (pH 6.8), 500 mM NaCl). The data were processed by using the software applications embedded in the ATSAS package [ http://www.embl-hamburg.de/biosaxs/software.html]. The radius of gyration Rg and forward scattering intensity I(0) were estimated from the Guinier plot[35] of I(q) in the smaller angle region of qRg < 1.3. The distance distribution function P(r) was calculated in the program GNOM[36], where the experimental I(q) data were used in a q-range from 0.031 to 0.250 Å^−1. The maximum particle dimension Dmax was estimated from the P(r) function as the distance r for which P(r) = 0[35]. The I(q) and Rg of 20 models corresponding to the NMR structures were calculated by using the program CRYSOL[37] and averaged. The molecular weight of the sample was estimated by comparing I(0)/c (where c is the protein concentration) of the sample to that of lysozyme.

Data set [3] is described as follows: HSQC dilution check for dimer or multimer association. The data set is classed as physicochemical. The following applies: 10-fold diluted samples. The text has this:
It might be possible that the differences in chemical shift observed between unmod-NCD and phos-NCD originate from different dimer or multimer associations due to their N-terminal tails.

[4] abbreviates: VP-ITC, protein 40 μM in cell, titrated with 400 μM H3K9me peptide, one-site binding model.
[5] abbreviates: 5 mg/ml, exposure 1 h x6, 50 mM KPB (pH 6.8), 500 mM NaCl, 5 mM DTT, 20 °C.
Where [6] appears, read: 10 mg/ml, exposure 1 h x3, pH 6.8, 20 °C.
[7] abbreviates: 15 mg/ml, exposure 1 h x3, pH 6.8, 20 °C.

In the case of “NCD^Δ1–9: N-terminal deletion mutant, amino acid 10–80 of HP1α”, in data set [1], the “ΔS (entropy change)” value was 5.66 cal/mol/K, the Ka is 6.04e+06 ± 255000 M⁻¹, the “ΔH (enthalpy change)” value was -7.435 ± 0.01679 kcal/mol and the “fold stronger binding to H3K9me than the CD alone” value (“fold stronger binding” below) is on record as “about 83 -fold”. For the same substance, in data set [1] (setting [4]), the Kd is 160 nM.

“NCD^Δ1–14: acidic segment plus CD, amino acids 15–80 of HP1α”: in data set [1], the “ΔS (entropy change)” value was 1.13 cal/mol/K, the Ka came to 397000 ± 40700 M⁻¹, the “ΔH (enthalpy change)” value was -7.178 ± 0.1141 kcal/mol and the “fold stronger binding” value was “about 5 -fold”. This substance displayed a Kd in data set [1] (setting [4]) of 2520 nM.

As for “phos-NCD^Δ1–4: NCD^Δ1–4 (amino acids 5–80) with phosphorylated serine residues”, in data set [1], the “binding to H3K9me relative to un-phosphorylated NCD^Δ1–9, in words” value is “recovered to a value similar to that of un-phosphorylated NCD^Δ1–9”; the “ΔS (entropy change)” value is 1.14 cal/mol/K; the Ka stood at 2.61e+06 ± 236000 M⁻¹; the “ΔH (enthalpy change)” value was -8.271 ± 0.05999 kcal/mol. For the same substance, the Kd in data set [1] (setting [4]) worked out at 380 nM.

As to “unmod-NCD: chromodomain with un-phosphorylated N-terminal tail, amino acids 1–80 of HP1α”, the “association state, in words” value in data set [2] is “monomer”. The “Rg (radius of gyration)” value in data set [2] (setting [5]) was found to be 17.2 ± 0.4 Å. In data set [2] (5 mg/ml), the “Estimated molecular weight (association state)” value (“Estimated molecular weight” for short) was 8.8 kDa and the “Dmax (maximum particle dimension)” value is 79 Å. Also, the “Rg (radius of gyration)” value in data set [2] (setting [6]) is listed as 17.0 ± 0.3 Å. For the same substance, the “Estimated molecular weight” value in data set [2] (10 mg/ml) is listed as 8.5 kDa. For the same substance, in data set [2] (setting [7]), the “Rg (radius of gyration)” value was 17.4 ± 0.3 Å. Besides, the “Estimated molecular weight” value in data set [2] (15 mg/ml) is recorded as 8.8 kDa. Further, the “HSQC signal changes upon dilution” value in data set [3] was “no significant signal changes were observed”. Further, in data set [1], the “ΔS (entropy change)” value is recorded as 3.16 cal/mol/K, the Ka was found to be 564000 ± 25900 M⁻¹, the “ΔH (enthalpy change)” value is -6.79 ± 0.04533 kcal/mol and the “fold weaker binding to H3K9me as compared with NCD^Δ1–9” value is 6 -fold. This substance yielded a Kd in data set [1] (setting [4]) of 1770 nM.

Consider “phos-NCD^Δ1–9: phosphorylated NCD^Δ1–9 form, amino acids 10–80 of HP1α”, for which the affinity in data set [1] (value in nM), expressed as Kd, was 40 nM. For the same substance, in data set [1], the “ΔS (entropy change)” value is recorded as 12.6 cal/mol/K, the Ka worked out at 2.58e+07 ± 5.24e+06 M⁻¹, the “ΔH (enthalpy change)” value is -6.233 ± 0.04246 kcal/mol and the “times more strongly bound H3K9me than the CD” value is recorded as “more than 300 times”. Further, the “fold stronger binding” value in data set [1] is “about 330 -fold”.

Regarding “phos-NCD: chromodomain with phosphorylated N-terminal tail, amino acids 1–80 of HP1α, co-expressed with casein kinase II”, the “association state, in words” value in data set [2] is recorded as “monomer”. Further, the “Rg (radius of gyration)” value in data set [2] (setting [5]) came out at 18.9 ± 0.4 Å. Besides, in data set [2] (5 mg/ml), the “Estimated molecular weight” value was 11.7 kDa and the “Dmax (maximum particle dimension)” value is listed as 94 Å. Moreover, in data set [2] (setting [6]), the “Rg (radius of gyration)” value amounted to 19.4 ± 0.4 Å. Further, in data set [2] (10 mg/ml), the “Estimated molecular weight” value is listed as 11.7 kDa. The “Rg (radius of gyration)” value in data set [2] (setting [7]) stood at 19.8 ± 0.3 Å. Further, the “Estimated molecular weight” value in data set [2] (15 mg/ml) is reported as 11.9 kDa. Besides, the “HSQC signal changes upon dilution” value in data set [3] was “no significant signal changes were observed”. In addition, in data set [1], the “ΔS (entropy change)” value is given as 2.23 cal/mol/K, the Ka was found to be 5.87e+06 ± 521000 M⁻¹, the “ΔH (enthalpy change)” value is -8.424 ± 0.044 kcal/mol and the “times more strongly bound H3K9me than the CD” value is reported as “about 80 times”. Further, the dissociation constant (Kd) in data set [1] (setting [4]) is 170 nM. For the same substance, the “fold stronger affinity for H3K9me than unmod-NCD” value in data set [1] (relative to unmod-NCD) is “approximately 10 -fold”.

On to “NCD^Δ1–19: CD domain alone, amino acids 20–80 of HP1α”, for which the “association state, in words” value in data set [2] was “monomer”. The entries for the “Rg (radius of gyration)” value in data set [2] (setting [5]), in data set [2] (setting [6]) and in data set [2] (setting [7]) were 14.0 ± 0.3 Å, 13.8 ± 0.3 Å and 13.7 ± 0.2 Å, respectively. Moreover, the “Estimated molecular weight” value in data set [2] (5 mg/ml) was 6.6 kDa; in data set [2] (10 mg/ml) it was 6.0 kDa; in data set [2] (15 mg/ml), 6.1 kDa. The “Dmax (maximum particle dimension)” value in data set [2] (5 mg/ml) is given as 56 Å. The “ΔS (entropy change)” value in data set [1] was -13.0 cal/mol/K. In data set [1], this substance registered a Ka of 75000 ± 2300 M⁻¹. In addition, the “ΔH (enthalpy change)” value in data set [1] was -1.036E4±103.0 cal/mol. Moreover, the Kd in data set [1] (setting [4]) is 13300 nM.

With “NCD^Δ1–4: N-terminal deletion mutant, amino acids 5–80 of HP1α”, in data set [1], the “ΔS (entropy change)” value was 7.75 cal/mol/K, the Ka stood at 1.31e+06 ± 50700 M⁻¹, the “ΔH (enthalpy change)” value is -5.933 ± 0.02294 kcal/mol and the “fold weaker binding to H3K9me as compared with NCD^Δ1–9” value is “about 4 -fold”. The same substance came in with a Kd in data set [1] (setting [4]) of 760 nM.
